Earlier results, collected in patent US20040121407A1, “Regulation of the growth hormone/IGF-1 axis” (ELIXIR PHARMACEUTICALS, INC., priority 2002, published 2004).
Values belong to the compound of their own block, whether it stands above or below them.

Key:
IGF-1 levels = settings: administered subcutaneously
human SST2 = human SST2 (Homo sapiens, UniProt P30874)
human SST2, sequence (P30874 whole entry): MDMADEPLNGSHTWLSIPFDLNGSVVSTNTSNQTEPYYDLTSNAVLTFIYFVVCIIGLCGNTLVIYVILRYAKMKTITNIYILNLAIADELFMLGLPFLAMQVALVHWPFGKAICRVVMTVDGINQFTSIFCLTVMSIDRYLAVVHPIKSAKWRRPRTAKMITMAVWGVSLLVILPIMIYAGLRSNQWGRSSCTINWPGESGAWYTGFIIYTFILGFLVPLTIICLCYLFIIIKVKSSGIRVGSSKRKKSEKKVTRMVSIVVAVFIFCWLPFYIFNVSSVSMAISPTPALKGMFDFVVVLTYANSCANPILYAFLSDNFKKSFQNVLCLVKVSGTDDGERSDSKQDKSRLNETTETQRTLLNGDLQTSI

Compound: Pegvisomant: modified human GH in which nine amino acids have been replaced, with polyethylene glycol polymers; GH receptor antagonist
IGF-1 levels (IGF-1 levels): dose dependent reduction

Compound: [N-acetyl-Tyr^1,D-Arg^2] GHRH^1-29NH2 [standard GHRH antagonist]
human GH secretory response to exogenous GHRH (GH secretion; exogenous GHRH): inhibits | spontaneous GH secretion (GH secretion; in vivo): lowers

selectivity (human SST2): highly selective
Compound: CC(C)(C)OC(=O)[C@H](CCCCN)NC(=O)[C@@H](Cc1c[nH]c2ccccc12)NC(=O)N1CCC(n2c(=O)[nH]c3ccccc32)CC1 [L-054,522]
